One experiment deals with T1, GPR3 (Homo sapiens, UniProt P46089).
T1 construct: expressed in transfected cells; host or cells: CHO cells
Put plainly: GPR3 antagonist functional cAMP assay (LANCE Ultra cAMP TR-FRET, CHO cells stably expressing GPR3). The format is cell-based. As to conditions: procedure of Example 24. An outline of the steps: (§1)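 We measure cAMP by TR-FRET (665 nm) in cells held in glucose-containing Krebs-Ringer buffer with BSA and a PDE inhibitor, after a 45 min, 37 °C compound incubation. IC50s derive from a four-parameter logistic fit.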
In general terms: Cyclic AMP is a second messenger, typically raised through Gs and lowered through Gi signalling.

For the next experiment, the target named is T2, GPR6 (Homo sapiens, UniProt P46095).
T2 construct: expressed in transfected cells; host or cells: CHO cells
Put plainly: GPR6 antagonist functional cAMP assay (LANCE Ultra cAMP TR-FRET, CHO cells stably expressing GPR6). It is filed as cell-based. As to conditions: procedure of Example 24. The method in brief:
as §1

T1 sequence (P46089 whole entry, species assumed): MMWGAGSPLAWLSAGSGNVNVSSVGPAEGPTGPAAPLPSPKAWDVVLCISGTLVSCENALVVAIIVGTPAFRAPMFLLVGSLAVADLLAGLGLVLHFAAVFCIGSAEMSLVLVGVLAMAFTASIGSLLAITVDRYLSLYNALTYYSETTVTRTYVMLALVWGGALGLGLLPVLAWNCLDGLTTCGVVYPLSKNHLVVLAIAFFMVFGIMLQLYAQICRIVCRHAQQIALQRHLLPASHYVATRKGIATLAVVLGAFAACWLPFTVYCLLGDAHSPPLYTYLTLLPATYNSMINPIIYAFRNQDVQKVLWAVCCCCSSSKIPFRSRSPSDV
T2 sequence (P46095 whole entry): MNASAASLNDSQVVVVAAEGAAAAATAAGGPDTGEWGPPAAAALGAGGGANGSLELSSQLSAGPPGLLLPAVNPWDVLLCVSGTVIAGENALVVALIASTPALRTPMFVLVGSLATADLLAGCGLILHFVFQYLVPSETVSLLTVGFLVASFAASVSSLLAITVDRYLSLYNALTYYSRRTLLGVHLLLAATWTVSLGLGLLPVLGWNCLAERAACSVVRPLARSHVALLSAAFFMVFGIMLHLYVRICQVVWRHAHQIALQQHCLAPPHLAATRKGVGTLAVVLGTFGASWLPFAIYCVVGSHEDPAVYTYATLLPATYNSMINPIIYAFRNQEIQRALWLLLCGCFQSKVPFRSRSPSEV

As to `Cn1cc(-c2nc3cc([C@H](O)C(C)(C)O)ncc3nc2N2CCC(=Cc3ccc(F)cc3F)CC2)cn1` (single isomer, unassigned) [Compound 764], the IC50 (commonly the concentration at which inhibition is half-maximal) is 100 to 1000 nM on GPR3 and < 100 nM at GPR6.

Consider `CC(C)(O)C(O)c1cc2nc(-c3cnn(C(F)F)c3)c(N3CCC(=Cc4ccc(F)cc4F)CC3)nc2cn1` (single isomer, unassigned) [Compound 766], for which the IC50 against GPR3 was in the range of 1000 to 30000 nM; against GPR6, 100 to 1000 nM.

Take `CC(C)(O)C(O)c1cc2nc(-c3cnn(C(F)F)c3)c(N3CCC(=Cc4ccc(F)cc4F)CC3)nc2cn1` (single isomer, unassigned) [Compound 767]: the figures for the 50% inhibitory concentration (IC50) on GPR3 and at GPR6 were 1000 to 30000 nM and 100 to 1000 nM, respectively.

Regarding `CC(C)(O)[C@@H](O)c1cc2nc(N3CCC(=Cc4ccc(F)cc4F)CC3)c(-c3cnn(C4CC4)c3)nc2cn1` (single isomer, unassigned) [Compound 769], the IC50 was in the range of 1000 to 30000 nM at GPR3 and 100 to 1000 nM on GPR6.

For the compound `CC(C)(O)[C@H](O)c1cc2nc(N3CCC(=Cc4ccc(F)cc4F)CC3)c(-c3cnn(C4CC4)c3)nc2cn1` (single isomer, unassigned) [Compound 770], the figures for the IC50 on GPR3 and against GPR6 were 1000 to 30000 nM and 100 to 1000 nM, respectively.

For the compound `CC(C)(O)C(O)c1cc2nc(-c3cnn(CF)c3)c(N3CCC(=Cc4ccc(F)cc4F)CC3)nc2cn1` (single isomer, unassigned) [Compound 771], the IC50 at GPR3 and against GPR6 was 100 to 1000 nM in each case.

For the compound `Cn1cc(-c2nc3cc([C@@](C)(O)C(C)(C)O)ncc3nc2N2CCN(Cc3ccc(F)cc3F)CC2)cn1` (single isomer, unassigned) [Compound 772], the IC50 on GPR3 and against GPR6 was 100 to 1000 nM each time.

With `Cn1cc(-c2nc3cc([C@](C)(O)C(C)(C)O)ncc3nc2N2CCN(Cc3ccc(F)cc3F)CC2)cn1` (single isomer, unassigned) [Compound 773], the IC50 against GPR3 and at GPR6 was 100 to 1000 nM in each case.

With `CC(C)(O)[C@](C)(O)c1cc2nc(-c3cnn(C4CC4)c3)c(N3CCN(Cc4ccccc4F)CC3)nc2cn1` (single isomer, unassigned) [Compound 775], the half-inhibitory concentration (IC50) on GPR3 fell in the range of 1000 to 30000 nM; on GPR6 it was 100 to 1000 nM.

On to `CC(C)(O)[C@@](C)(O)c1cc2nc(-c3cnn(C4CC4)c3)c(N3CCN(Cc4ccccc4F)CC3)nc2cn1` (single isomer, unassigned) [Compound 776], for which the results for the IC50 against GPR3 and at GPR6 were 1000 to 30000 nM and 100 to 1000 nM, respectively.

`CC(C)(O)C(O)c1cc2nc(-c3cnn(CF)c3)c(N3CCC(=Cc4ccc(F)cc4F)CC3)nc2cn1` (single isomer, unassigned) [Compound 777]: the concentration for half-maximal inhibition (IC50) against GPR3 and on GPR6 was 100 to 1000 nM in each case.

In the case of `CC(C)(O)[C@@H](O)c1cc2nc(N3CCC(=Cc4ccc(F)cc4F)CC3)c(-c3cnn(C(F)F)c3)nc2cn1` (single isomer, unassigned) [Compound 778], the results for the IC50 against GPR3 and against GPR6 were 1000 to 30000 nM and 100 to 1000 nM, respectively.

Take `CC(C)(O)[C@H](O)c1cc2nc(N3CCC(=Cc4ccc(F)cc4F)CC3)c(-c3cnn(C(F)F)c3)nc2cn1` (single isomer, unassigned) [Compound 779]: the IC50 at GPR3 was 1000 to 30000 nM; at GPR6, < 100 nM.

Take `CC(C)(O)[C@H](O)c1cc2nc(-c3cnn(C4CC4)c3)c(N3CCN(Cc4ccccc4F)CC3)nc2cn1` (single isomer, unassigned) [Compound 781]: the IC50 was in the range of 1000 to 30000 nM against GPR3 and 100 to 1000 nM against GPR6.

As to `CC(C)(O)C(C)(O)c1cc2nc(-c3cnn(CF)c3)c(N3CCC(Oc4ccc(F)cc4F)CC3)nc2cn1` (single isomer, unassigned) [Compound 782], the results for the 50% inhibitory concentration (IC50) at GPR3 and against GPR6 were 1000 to 30000 nM and 100 to 1000 nM, respectively.

For `CC(C)(O)[C@@](C)(O)c1cc2nc(-c3cnn(CF)c3)c(N3CCC(Oc4ccc(F)cc4F)CC3)nc2cn1` (single isomer, unassigned) [Compound 783], the results for the IC50 against GPR3 and against GPR6 were 1000 to 30000 nM and 100 to 1000 nM, respectively.

The values above are taken from patent publication US20260042755A1, “GPR6 INVERSE AGONISTS” (MapLight Therapeutics, Inc., priority 2022, published 2026).
